Counter-ions that a name gives are not always drawn. Like-named read-outs stand apart in the source and are kept apart here.

Data set [1] deals with HCV replicon. Put plainly: HCV replicon-based viral bioassay with supernatants of compound-treated PBMC. The class given is cell-based, hepatitis C virus. As for the experimental part: A quantitative assay was developed which is based on measuring the activity of the luciferase reporter gene that was integrated into an HCV replicon. By using this system, interferons from TLR7 agonist-treated PBMCs were measured and their inhibitory activity was assessed using the luciferase reporter replicon.
Human PBMCs isolated from a healthy donor were placed in replicate cell culture wells (5×10^6 cells per well). The PBMCs are incubated in the absence of test compounds at 37° C. in a humidified atmosphere containing 5% CO2 for 24 hours to allow stabilization to the culture conditions, and then the TLR7 ligand or a drug free control is added to replicate wells containing PBMCs from the same donor. The concentrations of TLR7 ligand may be varied to suit the particular experiment, and the PBMC cultures are then incubated at 37° C. in a humidified atmosphere containing 5% CO2 for eight hours. Samples of cell culture supernatant are taken at the eight hour time point (or twenty four hour time point in case of Loxoribine and its prodrugs) from TLR7 ligand treated and control wells and are assayed for interferon-alpha production by ELISA. Supernatants from compound-treated cells and a no-drug control were diluted at 1:10, 1:100, and 1:1000 in RPMI media and applied to a 96-well plate of Huh7 hepatocyte cells containing the luciferase reporter replicon. Cells were incubated for 48 hours at 37° C. in a tissue culture incubator.
After the incubation period, the 96-well plates are washed 2× with PBS and are lysed with passive lysis buffer (Promega). Plates are shaken at room temperature for 20 minutes and standard luciferase assay reagent (Promega) is added to each well by injection and the plate is read on an Lmax luminometer (Molecular Devices).
A supernatant collected from PBMC cells non-exposed to the compound and diluted as specified in the first column was used as a control (“Blank supernatant”). The PBMC cells were isolated from a single blood donor as specified.
(In general: Replicon systems follow genome replication, usually without infectious particles.)

The test system of data set [2] is human peripheral blood mononuclear cells (PBMC). Put plainly: PBMC assay of interferon alpha release (masking). The class given is cell-based. The conditions noted are these: for Emax at 100 µM: Homo sapiens, PBMC, read-out: Amount of INFa relative to that induced by isatoribine at 100 μM. As for the experimental part:
A typical experiment would use human peripheral blood mononuclear cells (PBMC) isolated from a healthy donor and placed in replicate cell culture wells; typically, 2×10^6 to 5×10^6 cells are placed in each well. The PBMC are incubated in the absence of test compounds at 37° C. in a humidified atmosphere containing 5% CO2 for 24 hours to allow stabilization to the culture conditions, and then 100 micromolar isatoribine, the TLR7 ligand and a corresponding TLR7 ligand prodrug are added to separate wells containing PBMC from the same donor; untreated controls are included. The concentrations of TLR7 ligand and TLR7 ligand prodrug may be varied to suit the particular experiment, and the PBMC cultures are then incubated at 37° C. in a humidified atmosphere containing 5% CO2 for a period of time ranging from two hours to 48 hours. Samples of cell culture supernate media are taken during the incubation. These are assayed for cytokine production by ELISA. Additionally the amount of TLR7 ligand and TLR7 ligand prodrug remaining at the end of the incubation may be assayed by LC-MS. Cytokine production is calculated relative to production in the isatoribine control, following subtraction of the cytokine production in untreated controls.
Thus, if the TLR7 ligand generates more interferon alpha (a conveniently measured cytokine) than does the corresponding TLR7 ligand prodrug after a similar duration of exposure and concentration, the TLR7 ligand prodrug may be deemed a “masked” TLR7 ligand prodrug.

Data set [3] concerns interferon alpha. Put plainly: Interferon alpha plasma concentrations in mice. The class given is in vivo, mouse. The text has this: Not only can one measure the plasma concentrations of isatoribine arising from oral administration of the said prodrug(s) but also the extensive immunological research conducted in the mouse has provided reagents suitable for measuring the levels of interferon alpha, a cytokine of interest reflecting one of the desired biologic activities of isatoribine.

The nature of data set [4]: Toxicology studies, GI tolerance in beagle dogs. The class given is in vivo, beagle dog. The conditions noted are these: dogs, oral val-isatoribine. The text has this:
We compared in the dog the oral toxicology of 21 and 24, and the intravenous toxicology of 21. We observed that the oral toxicology of 24 was much more like intravenous 21 than it was like oral 21.

Where [5] appears, read: isatoribine equivalent applied dose 8.1 mg/kg.
[6] abbreviates: isatoribine equivalent applied dose 16 mg/kg.
Setting [7] is: isatoribine equivalent applied dose 32 mg/kg.
[8] abbreviates: isatoribine equivalent applied dose 64 mg/kg.

On to `CC(C)Cn1cnc2c(N)nc3ccccc3c21` [Compound 31, 1-Isobutyl-1H-imidazo[4,5-c]quinolin-4-ylamine], for which the HCV replicon inhibition in data set [1] (Table 5 No. 1, PBMC exposed 8 hours to 3.2 μM, donor FL75287, supernatant dilution 1:10) came to 100%; in data set [1] (Table 5 No. 1, PBMC exposed 8 hours to 3.2 μM, donor FL75287, supernatant dilution 1:100) it was 100%; in data set [1] (Table 5 No. 1, PBMC exposed 8 hours to 3.2 μM, donor FL75287, supernatant dilution 1:1000), 89%; in data set [1] (Table 5 No. 2, PBMC exposed 8 hours to 3.2 μM, donor FL75287, supernatant dilution 1:10), 100%; in data set [1] (Table 5 No. 2, PBMC exposed 8 hours to 3.2 μM, donor FL75287, supernatant dilution 1:100), 75%; in data set [1] (Table 5 No. 2, PBMC exposed 8 hours to 3.2 μM, donor FL75287, supernatant dilution 1:1000), 1%. In addition, the Emax at 100 µM in data set [2] (24 h) was in the range of 60 to 76%.

As to `C=CCn1c(=O)n([C@@H]2O[C@H](CO)[C@@H](O)[C@H]2O)c2nc(N)[nH]c(=O)c21` [Compound 17, 7-allyl-2-amino-9-β-D-ribofuranosyl-7,9-dihydro-1H-purine-6,8-dione], the HCV replicon inhibition in data set [1] (Table 4 No. 1, PBMC exposed 24 hours to 100 μM, donor FL75864, supernatant dilution 1:10) was determined as 100%; in data set [1] (Table 4 No. 1, PBMC exposed 24 hours to 100 μM, donor FL75864, supernatant dilution 1:100), 74%; in data set [1] (Table 4 No. 1, PBMC exposed 24 hours to 100 μM, donor FL75864, supernatant dilution 1:1000), 17%. The Emax at 100 µM in data set [2] (Table 10, 100 μM, 24 hours exposure) worked out at 50%.

In the case of `CC(C)[C@H](N)C(=O)OC[C@H]1O[C@@H](n2c(=O)sc3c(O)nc(N)nc32)[C@H](O)[C@@H]1O` [Compound 24, 5-Amino-3-(5′-O-L-valinyl-β-D-ribofuranosyl)thiazolo[4,5-d]pyrimidine-2,7-dione Dihydrochloride], in data set [2] (Table 9, 100 μM, 8 hours exposure, same blood donor), the Emax at 100 µM was 1%. Besides, the “increase of the magnitude of both the average and peak interferon response over isatoribine” value in data set [3] (mice, oral dosing) turned out to be 100%. Besides, the “levels of isatoribine and interferon relative to those after intravenous isatoribine” value in data set [3] (mice, oral, 50 mg/kg isatoribine molar equivalent vs intravenous isatoribine 25 mg/kg, FIG. 1) was “approximately 50%”. In data set [3] (oral dosing, data of Tables 15, 16 and 17), the “mice with detectable interferon in their plasma” value is given as 10 of the 30. In addition, the “Emesis or loose stool” value in data set [4] (setting [5]), in data set [4] (setting [6]), in data set [4] (setting [7]) and in data set [4] (setting [8]) was “Neg” each time. Also, the “GI lesions or irritation” value in data set [4] (setting [5]), in data set [4] (setting [6]), in data set [4] (setting [7]), in data set [4] (setting [8]), in data set [4] (isatoribine equivalent applied dose 130 mg/kg) and in data set [4] (isatoribine equivalent applied dose 260 mg/kg) was “Neg” throughout. Besides, the “GI lesions or irritation” value in data set [4] (isatoribine equivalent applied dose 390 mg/kg) was “Neg”.

For the molecule “[2-Ethoxymethyl-1-(2-hydroxy-2-methyl-propyl)-1H-imidazo[4,5-c]quinolin-4-yl]-carbamic acid ethyl ester [Compound 39]”, in data set [2] (Table 12, 1 μM, 24 hours exposure), the “Amount of INFa relative to that induced by isatoribine at 100 μM” value was 95 @ 1 μM %.

For the molecule `COCCOc1nc(N)c2nc(OC)n(Cc3ccccc3)c2n1` [Compound 65, 9-Benzyl-8-methoxy-2-(2-methoxy-ethoxy)-9H-purin-6-ylamine], the Emax at 100 µM in data set [2] (Table 14, 100 μM, 24 hours exposure) was 0%.

On to `CC(=O)OC[C@H]1O[C@@H](n2c(=O)sc3c(OCc4oc(=O)oc4C)nc(N)nc32)[C@H](OC(C)=O)[C@@H]1OC(C)=O` [Compound 85, 5-Amino-7-(5-methyl-2-oxo-[1,3]dioxol-4-ylmethoxy)-3-(2′,3′,5′-tri-O-acetyl-β-D-ribofuranosyl)-thiazolo[4,5-d]pyrimidin-2-one], for which the Emax at 100 µM in data set [2] (Table 9, 100 μM, 24 hours exposure, same blood donor) is 0%.

For the molecule `CCOC(=O)Nc1nc2ccccc2c2c1ncn2CC(C)C` [Compound 50, (1-Isobutyl-1H-imidazo[4,5-c]quinolin-4-yl)-carbamic acid ethyl ester], the Emax at 100 µM in data set [2] (Table 11, 100 μM, 24 hours exposure) was 0%.

The values are drawn from US7858637B2, “Administration of TLR7 ligands and prodrugs thereof for treatment of infection by hepatitis C virus” (priority 2003, dated 2010).
